≈ marks a conversion by molar mass, not a printed value. Calls of active or inactive are those of the source. The rule behind the calls is not given here.
Experiments:
[1] = test system: COLO 205; assay: Antiproliferative activity against human COLO205 cells by [3H]thymidine uptake assay; type: functional, cell-based; details: for Activity: TDE = time-dependent effect
[2] = target: T1, Aurora kinase A (Homo sapiens, UniProt O14965)
T1 sequence (O14965 whole entry): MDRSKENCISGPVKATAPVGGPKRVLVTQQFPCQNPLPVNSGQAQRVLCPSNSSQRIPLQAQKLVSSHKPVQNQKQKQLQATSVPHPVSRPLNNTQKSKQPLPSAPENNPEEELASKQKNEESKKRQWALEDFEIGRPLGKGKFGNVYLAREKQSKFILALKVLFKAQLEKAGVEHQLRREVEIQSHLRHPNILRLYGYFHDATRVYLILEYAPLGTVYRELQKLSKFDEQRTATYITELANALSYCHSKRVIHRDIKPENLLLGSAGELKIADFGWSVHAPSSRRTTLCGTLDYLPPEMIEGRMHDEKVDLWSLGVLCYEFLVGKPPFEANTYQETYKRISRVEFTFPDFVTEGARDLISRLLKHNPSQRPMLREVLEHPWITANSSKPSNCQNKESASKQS
Description: Inhibition of Aurora-A by coupled assay

[3] = Aqueous solubility at pH 7.4; type: physicochemical; details: buffer
[4] = target: T2, Aurora kinase B (Homo sapiens, UniProt Q96GD4); assay: Inhibition of Aurora-B
[5] = target: Glycogen synthase kinase-3 beta (Homo sapiens, UniProt P49841)
[6] = target: Proto-oncogene tyrosine-protein kinase Src (Homo sapiens, UniProt P12931); assay: Inhibition of Src
[7] = test system: COLO 205; assay: Induction of apoptosis in human COLO205 cells assessed as DNA fragmentation by ELISA; type: functional, cell-based
[8] = test system: COLO 205; assay: Induction of apoptosis in human COLO205 cells by annexin V binding; type: functional, cell-based
[9] = test system: MCF7; assay: Antitumor activity against human MCF7 cells xenograft model assessed as tumor growth inhibition at 300 mg/kg, po bid; type: functional; details: read-out: GI
[10] = test system: COLO 205; assay: Cytotoxicity against human COLO205 cells after 48 hrs by MTS assay; type: functional, cell-based; details: COLO 205, 48 h
[11] = test system: COLO 205; assay: Induction of apoptosis in human COLO205 cells by TUNEL staining; type: functional, cell-based
[12] = target: T3, Aurora kinase C (Homo sapiens, UniProt Q9UQB9); assay: Inhibition of Aurora-C
T3 sequence (Q9UQB9 whole entry): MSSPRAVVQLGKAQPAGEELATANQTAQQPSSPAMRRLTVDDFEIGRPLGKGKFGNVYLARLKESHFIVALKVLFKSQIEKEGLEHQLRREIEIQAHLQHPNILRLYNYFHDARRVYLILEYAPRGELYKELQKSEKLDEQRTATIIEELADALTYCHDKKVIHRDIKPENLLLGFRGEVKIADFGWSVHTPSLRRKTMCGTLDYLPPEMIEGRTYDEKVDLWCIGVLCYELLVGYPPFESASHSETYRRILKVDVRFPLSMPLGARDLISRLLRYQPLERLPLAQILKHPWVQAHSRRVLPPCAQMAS

[13] = Bioavailability in rat; type: ADME, organism-based; details: in vivo
[14] = Half life in rat; type: ADME, organism-based; details: in vivo
[15] = target: T2, Aurora kinase B; assay: Inhibition of Aurora-B by time dependent kinetic study

Chain of Glycogen synthase kinase-3 beta (P49841 whole entry): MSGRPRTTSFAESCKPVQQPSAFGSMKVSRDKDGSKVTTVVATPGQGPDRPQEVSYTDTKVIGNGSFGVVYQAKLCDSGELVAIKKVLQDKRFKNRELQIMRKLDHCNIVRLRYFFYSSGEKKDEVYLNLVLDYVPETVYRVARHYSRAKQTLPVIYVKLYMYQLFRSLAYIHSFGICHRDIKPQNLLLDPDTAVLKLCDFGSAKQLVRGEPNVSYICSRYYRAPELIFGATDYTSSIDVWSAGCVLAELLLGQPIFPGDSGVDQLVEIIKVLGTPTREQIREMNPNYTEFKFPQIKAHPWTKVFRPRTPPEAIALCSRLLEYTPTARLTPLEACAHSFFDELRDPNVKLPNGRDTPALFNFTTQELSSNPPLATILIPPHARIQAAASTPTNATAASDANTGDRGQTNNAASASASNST
T2 sequence (Q96GD4 whole entry): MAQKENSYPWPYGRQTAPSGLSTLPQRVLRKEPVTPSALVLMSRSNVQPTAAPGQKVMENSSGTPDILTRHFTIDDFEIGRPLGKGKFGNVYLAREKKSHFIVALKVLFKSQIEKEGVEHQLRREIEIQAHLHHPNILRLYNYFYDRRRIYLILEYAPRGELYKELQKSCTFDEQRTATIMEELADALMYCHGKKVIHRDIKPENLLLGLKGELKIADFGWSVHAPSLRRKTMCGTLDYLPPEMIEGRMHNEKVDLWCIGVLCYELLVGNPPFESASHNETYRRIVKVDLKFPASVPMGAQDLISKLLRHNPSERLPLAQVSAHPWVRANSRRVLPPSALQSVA
Chain of Proto-oncogene tyrosine-protein kinase Src (P12931 2-536 limits assumed): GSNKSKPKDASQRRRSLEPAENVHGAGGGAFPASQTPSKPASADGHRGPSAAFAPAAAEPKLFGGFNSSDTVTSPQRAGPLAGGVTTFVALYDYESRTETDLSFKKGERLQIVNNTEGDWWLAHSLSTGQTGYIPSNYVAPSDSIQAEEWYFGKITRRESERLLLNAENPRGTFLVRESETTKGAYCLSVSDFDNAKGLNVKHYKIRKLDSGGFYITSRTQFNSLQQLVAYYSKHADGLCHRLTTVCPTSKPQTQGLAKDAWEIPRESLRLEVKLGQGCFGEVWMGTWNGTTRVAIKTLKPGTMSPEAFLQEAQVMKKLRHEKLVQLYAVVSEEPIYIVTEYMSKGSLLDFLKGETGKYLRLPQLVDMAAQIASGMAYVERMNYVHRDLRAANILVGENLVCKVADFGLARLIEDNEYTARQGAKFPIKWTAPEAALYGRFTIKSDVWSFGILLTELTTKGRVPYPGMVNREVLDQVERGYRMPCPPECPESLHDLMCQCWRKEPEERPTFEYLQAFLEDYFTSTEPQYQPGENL

SMILES | Ki [2] [nM] | Ki [4] [nM] | IC50 [1] [nM] | also measured
CCC(=O)Nc1ccc(Sc2nc(Nc3cc(C)[nH]n3)cc(N3CCN(C4CC4)CC3)n2)cc1 | – | – | – | Activity [1]: tde
CCC(=O)Nc1ccc(Sc2nc(Nc3cc(C)[nH]n3)cc(-c3cccnc3)n2)cc1 | 3.9 | 52 | 470 | solubility [3]: < 1 µg/mL
CCC(=O)Nc1ccc(Sc2nc(Nc3cc(C)[nH]n3)cc(N3CCN(CC)CC3)n2)cc1 | – | – | – | Activity [1]: tde
CC(=O)Nc1ccc(Sc2nc(Nc3cc(C)[nH]n3)cc(-c3ccccc3)n2)cc1 | 2.4 | 83 | – | –
CCC(=O)Nc1ccc(Sc2nc(Nc3cc(C)[nH]n3)cc(N3CCN(C(C)(C)C)CC3)n2)cc1 | – | – | – | Activity [1]: tde
Cc1cc(Nc2nc(Sc3ccc(NC(=O)OC(C)(C)C)cc3)nc3ccccc23)n[nH]1 | – | 250 | 2870 | Ki [5]: > 4000 nM; Ki [6]: > 3000 nM
COc1ccccc1Sc1nc(Nc2cc(C)[nH]n2)c2ccccc2n1 | – | 995 | – | Ki [6]: > 1000 nM
CCC(=O)Nc1ccc(Sc2nc(Nc3cc(C)[nH]n3)c3ccccc3n2)cc1 | – | 57 | 830 | –
Cc1cc(Nc2nc(Sc3ccc(NS(C)(=O)=O)cc3)nc3ccccc23)n[nH]1 | – | 230 | 780 | –
Cc1cc(Nc2nc(Sc3cccc(Cl)c3)nc3ccccc23)n[nH]1 | – | 185 | – | –
Cc1cc(Nc2nc(Sc3ccc(Cl)cc3Cl)nc3ccccc23)n[nH]1 | – | > 1100 | – | –
Cc1cc(Nc2nc(Sc3c(Cl)cccc3Cl)nc3ccccc23)n[nH]1 | – | > 1100 | – | –
CCC(=O)Nc1ccc(Sc2nc(Nc3cc(C)[nH]n3)cc(C(C)(C)C)n2)cc1 | 10 | 115 | 2000 | solubility [3]: 11.2 µg/mL (≈ 27.3 µM)
CCC(=O)Nc1ccc(Sc2nc(Nc3cc(C)[nH]n3)cc(-c3ccccc3)n2)cc1 | < 1 | 145 | 870 | –
CC(=O)Nc1ccc(Sc2nc(Nc3cc(C4CC4)[nH]n3)c3ccccc3n2)cc1 | – | 15 | 210 | –
CC(=O)Nc1ccc(Sc2nc(Nc3cc[nH]n3)c3ccccc3n2)cc1 | – | > 1100 | 2200 | –
COc1ccc(Sc2nc(Nc3cc(C)[nH]n3)c3ccccc3n2)cc1OC | – | 120 | – | –
CCC(=O)Nc1ccc(Sc2nc(Nc3cc(C)n[nH]3)cc(N3CCNCC3)n2)cc1 | 3.7 | 18 | – | solubility [3]: 296 µg/mL (≈ 675 µM)
COc1ccc(Sc2nc(Nc3cc(C)[nH]n3)c3ccccc3n2)cc1 | – | 575 | – | –
CC(=O)Nc1ccc(Sc2nc(Nc3cc(C)n[nH]3)c3ccccc3n2)cc1 | – | – | – | Activity [7]: Active; Activity [8]: Active; inhibition in vivo at 300 mg/kg [9]: 50%; IC50 [10]: 8500 nM; Activity [11]: Active
Cc1cc(Nc2cc(N3CCN(C)CC3)nc(Sc3ccc(NC(=O)C4CC4)cc3)n2)[nH]n1 [TOZASERTIB] | – | – | – | solubility [3]: 6.8 µg/mL (≈ 14.6 µM)
Cc1cc(Nc2nc(Sc3ccc(Cl)cc3)nc3ccccc23)n[nH]1 | – | > 1100 | – | –
Cc1cc(Nc2nc(Sc3ccccc3)nc3ccccc23)n[nH]1 | – | 590 | – | –

SMILES | Ki [2] [nM] | Ki [4] [nM] | IC50 [1] [nM] | also measured
CCC(=O)Nc1ccc(Sc2nc(C)cc(Nc3cc(C)n[nH]3)n2)cc1 | 5.1 | 153 | 720 | solubility [3]: 4.2 µg/mL (≈ 11.4 µM)
CCC(=O)Nc1ccc(Sc2nc(Nc3cc(C)n[nH]3)cc(N3CCN(CC)CC3)n2)cc1 | < 1 | 25 | – | solubility [3]: 114 µg/mL (≈ 245 µM)
CCC(=O)Nc1ccc(Sc2nc(Nc3cc(C)[nH]n3)cc(N3CCN(C)CC3)n2)cc1 | 1.6 | 20 | – | solubility [3]: 63.4 µg/mL (≈ 140 µM); Activity [1]: tde
CC(=O)Nc1ccc(Sc2nc(C)cc(Nc3cc(C)n[nH]3)n2)cc1 | 18 | 220 | 2000 | solubility [3]: < 1 µg/mL
CCC(=O)Nc1ccc(Sc2nc(Nc3cc(C)n[nH]3)cc(N3CCCCC3)n2)cc1 | 1.6 | 8 | – | –
Cc1cc(Nc2cc(N3CCN(C)CC3)nc(Sc3ccc(NC(=O)C4CC4)cc3)n2)n[nH]1 [TOZASERTIB] | – | – | 19 | Activity [1]: tde
Cc1cc(Nc2nc(Sc3ccc(Cl)c(Cl)c3)nc3ccccc23)n[nH]1 | – | > 40 | – | Ki [6]: > 38 nM
CCC(=O)Nc1ccc(Sc2nc(Nc3cc(C)[nH]n3)cc(N3CCNCC3)n2)cc1 | – | – | – | Activity [1]: tde
CCC(=O)Nc1ccc(Sc2nc(Nc3cc(C)n[nH]3)cc(N3CCN(C4CC4)CC3)n2)cc1 | < 1 | 9.5 | – | solubility [3]: 12.8 µg/mL (≈ 26.7 µM)
Cc1cc(Nc2nc(-c3ccncc3)nc3ccccc23)n[nH]1 | 81 | – | – | Ki [5]: 73 nM; Ki [6]: 181 nM
CCC(=O)Nc1ccc(Sc2nc(Nc3cc(C)[nH]n3)cc(-c3ccncc3)n2)cc1 | < 3 | 49 | 1000 | –
CC(=O)Nc1ccc(Sc2nc(Nc3cc(C)[nH]n3)c3ccccc3n2)cc1 | – | – | – | Ki [12]: 11 nM; bioavailability [13]: 40%; half-life [14]: 1.5 h
Cc1cc(Nc2nc(Sc3ccc4ccccc4c3)nc3ccccc23)n[nH]1 | – | > 40 | > 12000 | Ki [5]: > 150 nM; Ki [6]: > 500 nM
CCC(=O)Nc1ccc(Sc2nc(Nc3cc(C)n[nH]3)cc(N3CCN(C(C)(C)C)CC3)n2)cc1 | 1.3 | 11 | – | Ki [15]: 0.8 nM; half-life [14]: 8 h; solubility [3]: 221 µg/mL (≈ 446 µM)
Cc1cc(Nc2nc(Sc3cccc(Cl)c3Cl)nc3ccccc23)n[nH]1 | – | 675 | – | –
CCC(=O)Nc1ccc(Sc2nc(Nc3cc(C)[nH]n3)cc(N3CCC3)n2)cc1 | 2.4 | 23 | 730 | –
CC(=O)N(C)c1ccc(Sc2nc(Nc3cc(C)[nH]n3)c3ccccc3n2)cc1 | < 1 | 105 | 5770 | Ki [6]: 796 nM
CCC(=O)Nc1ccc(Sc2nc(Nc3cc(C)n[nH]3)cc(C3CC3)n2)cc1 | 3.9 | 59 | 1420 | –
Cc1cc(Nc2nc(Sc3ccccc3Cl)nc3ccccc23)n[nH]1 | – | 445 | – | –
Cc1cc(Nc2nc(Sc3ccc(NC(=O)C4CC4)cc3)nc3ccccc23)n[nH]1 | – | 51 | 910 | –
CCC(=O)Nc1ccc(Sc2nc(Nc3cc(C)n[nH]3)cc(N3CCOCC3)n2)cc1 | 1.7 | 14 | – | solubility [3]: 5.4 µg/mL (≈ 12.3 µM)
CC(=O)Nc1ccc(Sc2nccc(Nc3cc(C)[nH]n3)n2)cc1 | 86 | 207 | 4050 | solubility [3]: 13.8 µg/mL (≈ 40.5 µM)

From ChEMBL document CHEMBL1158437, “The discovery of the potent aurora inhibitor MK-0457 (VX-680)” (Bioorg Med Chem Lett, 2009)
